The numbers were not newly measured in patent US20030083469A1, “Allosteric control of nuclear hormone receptors” (The Salk Institute for Biological Studies, priority 1995, published 2003), which cites them from elsewhere.

Molecules are shown by their SMILES.

The subject of one data set is RAR. The following applies: Allegretto et al., 1993, Allenby et al.; cited from earlier work.
The test system of another data set is RXR. The following applies: Allegretto et al., 1993, Allenby et al.; cited from earlier work.

`CC1=C(/C=C/C(C)=C\C=C\C(C)=C\C(=O)O)C(C)(C)CCC1` [9-cis RA, 9-cis retinoic acid]: the binding affinity entry in the data set with RAR and in the data set on RXR was “high affinity” throughout.
